Assay results: US20250243196A1, “CITRON KINASE INHIBITORS” (The Cleveland Clinic Foundation, priority 2021, published 2025)
pIC50: −log10 of the molar value.

Key:
Assay type in all cases: biochemical
SGK2(h) = SGK2(h) (Homo sapiens (Human), UniProt Q9HBY8); test: KinaseProfiler panel; parameters: dose or concentration left out as unconfirmed; details: activity remaining
TRB2(h) = TRB2(h) (Homo sapiens (Human), UniProt Q92519); test: KinaseProfiler panel; parameters: dose or concentration left out as unconfirmed; details: activity remaining
Sequence of TRB2(h) (Q92519 whole entry): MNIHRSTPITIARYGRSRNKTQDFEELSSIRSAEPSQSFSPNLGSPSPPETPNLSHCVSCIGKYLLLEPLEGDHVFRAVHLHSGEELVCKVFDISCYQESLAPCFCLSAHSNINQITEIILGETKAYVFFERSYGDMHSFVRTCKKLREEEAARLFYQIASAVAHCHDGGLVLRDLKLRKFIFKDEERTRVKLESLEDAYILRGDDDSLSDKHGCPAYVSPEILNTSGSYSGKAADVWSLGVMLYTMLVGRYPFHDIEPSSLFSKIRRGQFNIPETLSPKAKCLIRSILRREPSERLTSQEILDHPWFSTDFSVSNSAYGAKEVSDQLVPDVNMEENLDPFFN

AMPKα2(h) = AMPKα2(h) (Homo sapiens (Human), UniProt P54646); test: KinaseProfiler panel; parameters: dose or concentration left out as unconfirmed; details: activity remaining
LRRK2(h) = LRRK2(h) (Homo sapiens (Human), UniProt Q5S007); test: KinaseProfiler panel; parameters: dose or concentration left out as unconfirmed; details: activity remaining
EphB2(h) = EphB2(h) (Homo sapiens (Human), UniProt P29323); test: KinaseProfiler panel; parameters: dose or concentration left out as unconfirmed; details: activity remaining
Txk(h) = Txk(h) (Homo sapiens (Human), UniProt P42681); test: KinaseProfiler panel; parameters: dose or concentration left out as unconfirmed; details: activity remaining
MAP4K3(h) = MAP4K3(h) (Homo sapiens (Human), UniProt Q8IVH8); test: KinaseProfiler panel; parameters: dose or concentration left out as unconfirmed; details: activity remaining
Sequence of MAP4K3(h) (Q8IVH8 whole entry): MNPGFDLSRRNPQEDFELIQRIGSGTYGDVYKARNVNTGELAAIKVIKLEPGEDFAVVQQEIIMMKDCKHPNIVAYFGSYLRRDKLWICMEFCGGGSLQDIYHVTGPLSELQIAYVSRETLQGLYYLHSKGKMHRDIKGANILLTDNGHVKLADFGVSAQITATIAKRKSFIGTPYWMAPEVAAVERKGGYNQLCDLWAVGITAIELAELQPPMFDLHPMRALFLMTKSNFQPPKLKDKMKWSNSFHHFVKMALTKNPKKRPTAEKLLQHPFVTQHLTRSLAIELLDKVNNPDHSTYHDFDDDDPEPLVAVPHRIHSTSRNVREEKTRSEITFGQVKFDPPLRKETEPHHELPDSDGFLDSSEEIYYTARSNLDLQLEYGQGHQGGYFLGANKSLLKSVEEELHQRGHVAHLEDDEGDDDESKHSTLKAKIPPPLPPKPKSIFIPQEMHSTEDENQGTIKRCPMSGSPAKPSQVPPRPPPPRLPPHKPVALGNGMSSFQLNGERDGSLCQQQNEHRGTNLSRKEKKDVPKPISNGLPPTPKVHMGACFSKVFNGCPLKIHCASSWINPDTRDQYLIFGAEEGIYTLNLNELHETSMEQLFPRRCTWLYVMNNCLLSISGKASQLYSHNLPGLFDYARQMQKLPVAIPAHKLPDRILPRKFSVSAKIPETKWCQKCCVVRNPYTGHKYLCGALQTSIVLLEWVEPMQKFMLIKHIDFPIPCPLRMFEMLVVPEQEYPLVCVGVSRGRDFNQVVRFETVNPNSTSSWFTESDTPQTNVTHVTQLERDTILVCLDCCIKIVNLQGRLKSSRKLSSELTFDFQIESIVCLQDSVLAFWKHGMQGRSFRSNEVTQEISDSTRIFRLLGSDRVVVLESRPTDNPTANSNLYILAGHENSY

MLK2(h) = MLK2(h) (Homo sapiens (Human), UniProt Q02779); test: KinaseProfiler panel; parameters: dose or concentration left out as unconfirmed; details: activity remaining
ATM(h) = ATM(h) (Homo sapiens (Human), UniProt Q13315); test: KinaseProfiler panel; parameters: dose or concentration left out as unconfirmed; details: activity remaining
Citron kinase = Citron kinase (Homo sapiens (Human), UniProt O14578); test: Radiometric citron kinase assay (Eurofins Cat #16-040KP); details: mean of at least two independent assays; read-out: Radiometric CitK IC50
Sequence of Citron kinase (O14578 whole entry): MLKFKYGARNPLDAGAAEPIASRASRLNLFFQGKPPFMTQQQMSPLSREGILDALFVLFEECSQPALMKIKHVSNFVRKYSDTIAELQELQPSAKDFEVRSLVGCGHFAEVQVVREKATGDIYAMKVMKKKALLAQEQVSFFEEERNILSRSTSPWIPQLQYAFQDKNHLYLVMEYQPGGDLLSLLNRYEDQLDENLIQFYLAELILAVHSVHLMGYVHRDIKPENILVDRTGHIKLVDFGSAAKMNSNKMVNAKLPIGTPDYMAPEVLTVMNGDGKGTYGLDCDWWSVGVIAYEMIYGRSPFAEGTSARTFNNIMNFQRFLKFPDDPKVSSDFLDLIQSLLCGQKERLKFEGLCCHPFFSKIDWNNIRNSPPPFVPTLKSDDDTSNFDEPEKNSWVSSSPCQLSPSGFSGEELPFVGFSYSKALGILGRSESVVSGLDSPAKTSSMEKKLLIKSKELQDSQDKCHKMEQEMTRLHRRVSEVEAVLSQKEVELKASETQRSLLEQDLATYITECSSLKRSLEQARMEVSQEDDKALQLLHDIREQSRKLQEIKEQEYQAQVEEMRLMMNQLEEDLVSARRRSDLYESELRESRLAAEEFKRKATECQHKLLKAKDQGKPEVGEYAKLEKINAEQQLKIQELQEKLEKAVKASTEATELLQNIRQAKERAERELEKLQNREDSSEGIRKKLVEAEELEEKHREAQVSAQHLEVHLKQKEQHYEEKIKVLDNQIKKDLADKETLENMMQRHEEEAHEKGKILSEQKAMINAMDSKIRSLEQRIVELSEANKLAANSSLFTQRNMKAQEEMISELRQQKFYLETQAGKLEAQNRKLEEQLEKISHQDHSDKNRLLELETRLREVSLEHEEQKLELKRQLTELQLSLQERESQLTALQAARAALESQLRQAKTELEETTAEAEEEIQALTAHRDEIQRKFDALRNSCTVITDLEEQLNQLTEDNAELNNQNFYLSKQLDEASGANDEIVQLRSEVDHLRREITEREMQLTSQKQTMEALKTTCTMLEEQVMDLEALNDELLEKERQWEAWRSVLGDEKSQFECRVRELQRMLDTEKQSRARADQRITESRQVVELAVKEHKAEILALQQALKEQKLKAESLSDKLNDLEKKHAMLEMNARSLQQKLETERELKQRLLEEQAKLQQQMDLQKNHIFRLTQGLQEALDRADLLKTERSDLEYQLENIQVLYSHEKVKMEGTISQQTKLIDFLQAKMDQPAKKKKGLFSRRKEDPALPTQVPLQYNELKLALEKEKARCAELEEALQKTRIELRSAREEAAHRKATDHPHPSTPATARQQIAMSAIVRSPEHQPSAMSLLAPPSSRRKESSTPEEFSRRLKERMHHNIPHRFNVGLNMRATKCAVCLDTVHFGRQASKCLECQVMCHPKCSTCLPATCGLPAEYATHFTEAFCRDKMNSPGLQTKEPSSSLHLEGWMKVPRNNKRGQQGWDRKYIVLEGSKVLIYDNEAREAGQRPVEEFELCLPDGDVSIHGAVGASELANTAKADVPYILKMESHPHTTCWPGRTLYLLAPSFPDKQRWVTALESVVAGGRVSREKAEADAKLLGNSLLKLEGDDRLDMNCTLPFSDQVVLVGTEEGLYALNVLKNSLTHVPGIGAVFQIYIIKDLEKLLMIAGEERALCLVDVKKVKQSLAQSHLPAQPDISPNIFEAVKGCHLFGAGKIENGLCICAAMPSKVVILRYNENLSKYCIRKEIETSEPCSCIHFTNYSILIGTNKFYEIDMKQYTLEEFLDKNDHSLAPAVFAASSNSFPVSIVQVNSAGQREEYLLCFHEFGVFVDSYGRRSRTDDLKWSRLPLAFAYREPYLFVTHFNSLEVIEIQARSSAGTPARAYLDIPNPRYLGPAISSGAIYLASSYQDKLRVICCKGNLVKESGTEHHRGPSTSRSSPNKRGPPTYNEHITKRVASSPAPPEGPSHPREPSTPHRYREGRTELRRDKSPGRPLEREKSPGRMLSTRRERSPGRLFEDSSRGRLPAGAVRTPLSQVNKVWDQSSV
Outline: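 Radiometric KinaseProfiler format: test compound incubated with kinase, substrate, cofactors and radiolabelled ATP; unreacted ATP washed away and radiolabelled phosphate incorporated into substrate measured. IC50 derived from inhibition of phosphorylation. Values are means of at least two independent assays.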

CDK9/cyclin T1(h) = CDK9/cyclin T1(h) (Homo sapiens (Human), UniProt P50750); test: KinaseProfiler panel; parameters: dose or concentration left out as unconfirmed; details: activity remaining
MAPKAP-K3(h) = MAPKAP-K3(h) (Homo sapiens (Human), UniProt Q16644); test: KinaseProfiler panel; parameters: dose or concentration left out as unconfirmed; details: activity remaining
Sequence of MAPKAP-K3(h) (Q16644 whole entry): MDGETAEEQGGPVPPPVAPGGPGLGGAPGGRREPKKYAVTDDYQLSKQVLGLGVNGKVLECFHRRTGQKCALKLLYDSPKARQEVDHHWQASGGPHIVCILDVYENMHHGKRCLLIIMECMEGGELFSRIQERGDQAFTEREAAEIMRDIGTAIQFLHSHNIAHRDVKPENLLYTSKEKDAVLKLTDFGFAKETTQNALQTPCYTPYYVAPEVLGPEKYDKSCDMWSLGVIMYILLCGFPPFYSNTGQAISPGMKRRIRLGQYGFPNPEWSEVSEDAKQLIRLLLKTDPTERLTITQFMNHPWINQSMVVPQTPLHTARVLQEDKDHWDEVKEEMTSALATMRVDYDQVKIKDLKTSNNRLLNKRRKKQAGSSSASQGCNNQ

Mer(h) = Mer(h) (Homo sapiens (Human), UniProt Q12866); test: KinaseProfiler panel; parameters: dose or concentration left out as unconfirmed; details: activity remaining
EphB4(h) = EphB4(h) (Homo sapiens (Human), UniProt P54760); test: KinaseProfiler panel; parameters: dose or concentration left out as unconfirmed; details: activity remaining
EGFR(h) = EGFR(h) (Homo sapiens (Human), UniProt P00533); test: KinaseProfiler panel; parameters: dose or concentration left out as unconfirmed; details: activity remaining
MST4(h) = MST4(h) (Homo sapiens (Human), UniProt Q9P289); test: KinaseProfiler panel; parameters: dose or concentration left out as unconfirmed; details: activity remaining
Sequence of MST4(h) (Q9P289 whole entry): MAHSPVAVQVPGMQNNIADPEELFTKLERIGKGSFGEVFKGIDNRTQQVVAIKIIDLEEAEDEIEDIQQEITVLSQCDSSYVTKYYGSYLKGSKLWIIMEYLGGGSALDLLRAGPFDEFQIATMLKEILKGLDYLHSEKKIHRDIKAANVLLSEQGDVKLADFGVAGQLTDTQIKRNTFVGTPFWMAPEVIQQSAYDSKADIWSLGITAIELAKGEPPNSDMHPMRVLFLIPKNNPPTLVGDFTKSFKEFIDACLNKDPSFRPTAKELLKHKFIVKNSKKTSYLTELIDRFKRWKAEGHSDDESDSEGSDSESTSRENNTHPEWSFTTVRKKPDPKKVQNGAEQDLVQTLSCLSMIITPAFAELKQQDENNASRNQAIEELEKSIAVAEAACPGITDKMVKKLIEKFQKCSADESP

FAK(h) = FAK(h) (Homo sapiens (Human), UniProt Q05397); test: KinaseProfiler panel; parameters: dose or concentration left out as unconfirmed; details: activity remaining
Wee1B(h) = Wee1B(h) (Homo sapiens (Human), UniProt P0C1S8); test: KinaseProfiler panel; parameters: dose or concentration left out as unconfirmed; details: activity remaining
DAPK2(h) = DAPK2(h) (Homo sapiens (Human), UniProt Q9UIK4); test: KinaseProfiler panel; details: activity remaining
SRMS(h) = SRMS(h) (Homo sapiens (Human), UniProt Q9H3Y6); test: KinaseProfiler panel; parameters: dose or concentration left out as unconfirmed; details: activity remaining
Sequence of SRMS(h) (Q9H3Y6 whole entry): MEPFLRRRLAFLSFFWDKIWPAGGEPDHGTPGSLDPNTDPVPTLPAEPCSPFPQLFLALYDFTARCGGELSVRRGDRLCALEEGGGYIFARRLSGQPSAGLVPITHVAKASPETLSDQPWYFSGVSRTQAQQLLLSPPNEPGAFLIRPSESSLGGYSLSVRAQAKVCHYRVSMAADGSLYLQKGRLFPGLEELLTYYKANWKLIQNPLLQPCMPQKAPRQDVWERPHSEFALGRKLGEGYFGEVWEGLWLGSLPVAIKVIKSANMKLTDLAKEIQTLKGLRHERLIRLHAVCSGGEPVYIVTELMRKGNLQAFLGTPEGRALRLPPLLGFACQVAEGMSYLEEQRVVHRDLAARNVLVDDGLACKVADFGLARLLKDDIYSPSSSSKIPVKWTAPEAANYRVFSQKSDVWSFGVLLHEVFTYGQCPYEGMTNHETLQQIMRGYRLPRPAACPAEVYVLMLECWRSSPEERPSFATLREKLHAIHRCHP

PRAK(h) = PRAK(h) (Homo sapiens (Human), UniProt Q8IW41); test: KinaseProfiler panel; parameters: dose or concentration left out as unconfirmed; details: activity remaining
Sequence of PRAK(h) (Q8IW41 whole entry): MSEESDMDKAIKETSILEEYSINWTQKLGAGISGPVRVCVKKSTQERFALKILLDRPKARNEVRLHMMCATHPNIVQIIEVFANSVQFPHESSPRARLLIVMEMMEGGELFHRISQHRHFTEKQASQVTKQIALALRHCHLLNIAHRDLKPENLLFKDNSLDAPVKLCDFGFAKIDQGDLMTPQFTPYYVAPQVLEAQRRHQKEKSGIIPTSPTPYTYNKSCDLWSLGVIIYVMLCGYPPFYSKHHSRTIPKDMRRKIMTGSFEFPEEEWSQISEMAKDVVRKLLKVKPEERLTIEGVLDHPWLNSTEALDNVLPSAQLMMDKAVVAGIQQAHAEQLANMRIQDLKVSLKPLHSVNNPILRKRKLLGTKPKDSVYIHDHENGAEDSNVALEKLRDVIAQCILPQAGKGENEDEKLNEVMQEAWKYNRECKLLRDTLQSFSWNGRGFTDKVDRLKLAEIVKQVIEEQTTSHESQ

In the case of `Cc1cc2c(-c3ccc(NC(=O)[C@H](N)CC(C)(C)C)cc3C)ccnc2[nH]1` [Compound F-90, (2R)-2-Amino-4,4-dimethyl-N-[3-methyl-4-(2-methyl-1H-pyrrolo[2,3-b]pyridin-4-yl)phenyl]pentanamide], the “% Activity” value (SGK2(h)) was 82%, the “% Activity” value (TRB2(h)) was 104% and the “% Activity” value (AMPKα2(h)) was 117%. The “% Activity” value (LRRK2(h)) was 100%, the “% Activity” value (EphB2(h)) was 96% and the “% Activity” value (Txk(h)) was 110%. The “% Activity” value (MAP4K3(h)) was 109%, the “% Activity” value (MLK2(h)) was 77% and the “% Activity” value (ATM(h)) was 103%. The pIC50 (Citron kinase) was 7.92, the “% Activity” value (CDK9/cyclin T1(h)) was 81% and the “% Activity” value (MAPKAP-K3(h)) was 125%. The “% Activity” value (Mer(h)) was 105%, the “% Activity” value (EphB4(h)) was 107% and the “% Activity” value (EGFR(h)) was 107%. For the same compound, the “% Activity” value (MST4(h)) was 106%, the “% Activity” value (FAK(h)) was 96% and the “% Activity” value (Wee1B(h)) was 88%. For the same compound, the “% Activity” value (DAPK2(h)) was 109%, the “% Activity” value (SRMS(h)) was 86% and the “% Activity” value (PRAK(h)) was 107%.
